# Experimental data from US4185116A, “L- and DL- Phenylglycines to treat diseases or conditions attributable to reduced carbohydrate metabolism” (priority 1976, dated 1980).
# Structures can show the parent of a compound that is named as a salt.
# Key:
# [1] = system: pyruvate dehydrogenase enzyme; assay: Proportion of active pyruvate dehydrogenase (PDHa/PDHt) in hearts of fat-fed rats after treatment in vivo; parameters: species or system rat; conditions: heart; for PDHa/PDHt Ratio, Compound: 0.6 millimoles/kg.
# Protocol: The total amount of the enzyme present (PDHt) and the amount which is present in the active form (PDHa) are assessed by a method similar to that described by Taylor et al., Jour. […] The fat-feeding process is found to depress the ratio PDHa/PDHt from a normal value of about 0.7 to a value in the range from 0.05 to 0.2. Treatment of fat-fed rats with L(+)-2-(4-hydroxyphenyl)glycine, either parenterally or orally, increases this ratio in a dose-dependent manner, the threshold doses for this effect being 0.05 millimole/kg. by intravenous injection and in the range 0.1 to 0.2 millimole/kg. by subcutaneous injection or by oral administration. The ratio is increased to a value in the range 0.8-1.0 (i.e., above that for rats on normal diet) by doses of 0.6 millimole/kg. and above.
# The increase in the PDHa/PDHt ratio effected by other compounds of formula (I) at a dose level of 0.6 millimoles/kg. is shown in the following Table: […]
# [2] = system: pyruvate oxidation by diaphragm tissue from fat-fed rats; assay: Pyruvate oxidation by diaphragm tissue from fat-fed rats (14C-pyruvate into CO2, in vitro); format: cell-based, rat; conditions: for activation at 500 µM: concentration of 0.5 mM, read-out: % Stimulation (of pyruvate oxidation)
# Protocol: The compounds of formula (I) were tested for their ability to increase pyruvate oxidation as follows:
# Diaphragm tissue is obtained from rats fed on a high fat diet similar to "Diet B" described by Zaragoza and Felber, Horm, Metab. Res., 2, 323 (1970). Pyruvate oxidation by such tissue is assessed by measurement of the rate of incorporation of carbon-14 from carbon-14-labelled pyruvate into carbon dioxide in vitro, as described by Bringolf, Eur. Jour. Biochem., 26, 360 (1972). The rate of pyruvate oxidation is depressed by 50-75% compared with that by diaphragm tissue from rats fed on a normal diet. […] The threshold concentration for such stimulation is about 0.25 millimolar and maximum stimulation of 170% is achieved at concentrations of 4 millimolar and above.
# [3] = system: glucose oxidation by isolated hearts from starved rats; assay: Glucose oxidation by isolated perfused hearts from starved rats (14C-glucose into CO2); format: cell-based; conditions: isolated starved-rat heart
# Protocol: The rate of glucose oxidation by isolated hearts from starved rats is measured in a recirculating oxygenated perfusion system, by measuring the rate of incorporation of carbon-14 from carbon-14-labelled glucose into carbon dioxide using a method similar to those described by Morgan et al., Jour. […] The perfusate contains glucose, palmitate, insulin and bovine serum albumen.
# [4] = system: heart of anesthetized beagle dogs; assay: Myocardial blood flow and metabolism in fasted, closed-chest, anesthetized, electrically paced beagle dogs; format: in vivo, dog
# Protocol: The ability of compounds of formula (I) to reduce oxygen demand and affect the relative utilization of carbohydrate and lipid metabolites in the heart has been assessed by measuring the effect of the compounds on myocardial blood flow and metabolism in fasted, closed-chest, anesthetized beagle dogs, with cardiac catherization to enable simultaneous sampling of coronary sinus and arterial blood to be carried out. Coronary sinus blood flow is measured by the hydrogen gas clearance technique described by Aukland et al., Circulation Res., 14, 164 (1964). The heart is paced electrically at 155 beats/min. and recordings of hemodynamic parameters (blood pressure, left ventricular pressure and the first derivative of the latter) are made continuously. Control measurements of coronary blood flow are made and samples of blood taken at 40 minute intervals, both in an untreated animal and in the same animal dosed with an infusion of isoprenaline ([…].), which both stimulates cardiac contraction and increases plasma free fatty acid levels. The compound of formula (I) is then administered intravenously and measurements are made and samples taken again, 40 minutes and 90 minutes later. The blood samples from the artery and coronary sinus are analyzed for oxyhemoglobin, pyruvate and free fatty acid (FFA) content, differences between those of the arterial and coronary sinus blood, when multiplied by coronary blood flow, being a measure of oxygen consumption, pyruvate uptake and FFA uptake by the myocardium respectively.
# [5] = system: rats in which diabetes has been induced by treatment with streptozotocin; assay: Blood glucose levels in streptozotocin-diabetic rats; format: in vivo, rat
# Protocol: The ability of compounds of formula (I) to decrease blood glucose levels has been assessed by measuring their effect on blood glucose levels in rats in which diabetes has been induced by treatment with streptozotocin (85 mg/kg.). Four days after such treatment, a number of rats are given 1 millimole/kg of the compound by intraperitoneal injection and a similar number are given placebo. The doses are repeated after a further 24 hours and 48 hours. Blood samples are taken from a tail vein immediately before each dosage (which is 2 hours after removal of the animals from food) and 1, 2 and 3 hours after the third dose.
# [6] = 0.02 to 0.1 millimole/kg. intravenously
smiles,measurement,setting,value
NC(C(=O)O)c1ccc(O)cc1 (racemic) [DL (racemic)-2-(4-hydroxyphenyl)glycine],effect on PDHa/PDHt ratio relative to the L(+)-isomer,[1]; same dose levels,"only half, or less than half, the effect of the L(+)-isomer"
same,effect on pyruvate oxidation relative to the L(+)-isomer,[2],approximately half that of the L(+)-isomer
COc1ccc([C@H](N)C(=O)O)cc1 [L(+)-2-(4-methoxyphenyl)glycine],"effect on rate of glucose oxidation (predicted, 'will be')",[3],significantly increased
same,activation at 500 µM,[2]; Rattus norvegicus,79%
CCOC(=O)[C@@H](N)c1ccc(OC)cc1 [ethyl L(+)-2-(4-methoxyphenyl)glycinate],"effect on pyruvate oxidation (predicted, 'will be found')",[2],stimulate pyruvate oxidation
"COc1ccc([C@H](N)C(=O)O)cc1 [L(+)-2-(4-methoxyphenyl)glycine, calcium salt]","effects on myocardial pyruvate uptake, blood flow, oxygen consumption and FFA uptake (predicted, 'will be found')",[4],effects similar to L(+)-2-(4-hydroxyphenyl)glycine
Br.COc1ccc([C@H](N)C(=O)OCCC(C)C)cc1 [3-methylbutyl L(+)-2-(4-methoxyphenyl)glycinate hydrobromide],"effect on PDHa/PDHt ratio (predicted, 'will be')",[1],significantly increased
"N[C@@H](C(=O)O)c1ccc(O)cc1 [D(-)-2-(4-hydroxyphenyl)glycine, reference compound]",effect on rate of glucose oxidation,[3]; 2 millimolar in perfusate,no significant effect
same,effect on PDHa/PDHt ratio,[1]; dose levels up to 1.2 millimole/kg.,very little effect
same,effect on pyruvate oxidation,[2]; concentrations up to 4 mM,no significant effect
CCCCOC(=O)[C@@H](N)c1ccc(OC)cc1 [n-butyl L(+)-2-(4-methoxyphenyl)glycinate],"effect on pyruvate oxidation (predicted, 'will be found')",[2],stimulate pyruvate oxidation
CCCOC(=O)[C@@H](N)c1ccc(O)cc1.Cl [n-propyl L(+)-2-(4-hydroxyphenyl)glycinate hydrochloride],"effect on rate of glucose oxidation (predicted, 'will be')",[3],significantly increased
NC(=O)[C@@H](N)c1ccc(O)cc1 [L(+)-2-(4-hydroxyphenyl)glycinamide],"effect on rate of glucose oxidation (predicted, 'will be')",[3],significantly increased
same,"PDHa/PDHt Ratio, Compound",[1]; p.o. (oral),0.91
same,"PDHa/PDHt Ratio, Compound",[1]; s.c. (subcutaneous),0.93
same,activation at 500 µM,[2]; Rattus norvegicus,51%
same,"effects on myocardial pyruvate uptake, blood flow, oxygen consumption and FFA uptake (predicted, 'will be found')",[4],effects similar to L(+)-2-(4-hydroxyphenyl)glycine
COC(=O)[C@@H](N)c1ccc(OC)cc1 [methyl L(+)-2-(4-methoxyphenyl)glycinate gluconate],"effect on PDHa/PDHt ratio (predicted, 'will be')",[1],significantly increased
"NC(C(=O)[O-])c1ccc(O)cc1.[Na+] (racemic) [DL-2-(4-hydroxyphenyl)glycine, sodium salt]","effect on rate of glucose oxidation (predicted, 'will be')",[3],significantly increased
"COc1ccc([C@H](N)C(=O)[O-])cc1.[K+] [L(+)-2-(4-methoxyphenyl)glycine, potassium salt]","effect on PDHa/PDHt ratio (predicted, 'will be')",[1],significantly increased
COC(=O)[C@@H](N)c1ccc(O)cc1 [Methyl L(+)-2-(4-hydroxyphenyl)glycinate],"PDHa/PDHt Ratio, Compound",[1]; p.o. (oral),0.42
same,"PDHa/PDHt Ratio, Compound",[1]; s.c. (subcutaneous),0.69
same,activation at 500 µM,[2]; Rattus norvegicus,89%
CC(C)OC(=O)[C@@H](N)c1ccc(O)cc1 [Isopropyl L(+)-2-(4-hydroxyphenyl)glycinate],activation at 500 µM,[2]; Rattus norvegicus,34%
N[C@H](C(=O)O)c1ccc(O)cc1 [L(+)-2-(4-hydroxyphenyl)glycine],rate of glucose oxidation,"[3]; 2 millimolar in perfusate, normal rate 1.27+ 0.32, mean of 9 observations",4.77 µmol/h
same,PDHa/PDHt ratio,"[1]; doses of 0.6 millimole/kg. and above, fat-fed untreated 0.05 to 0.2, normal diet about 0.7",0.8-1.0
same,threshold dose for increase of PDHa/PDHt ratio,[1]; intravenous injection,0.05 millimole/kg.
same,Emax,"[2]; Rattus norvegicus, at concentrations of 4 millimolar and above, read-out: maximum stimulation of pyruvate oxidation",170%
same,minimal effective concentration,"[2]; Rattus norvegicus, in vitro, read-out: threshold concentration for stimulation of pyruvate oxidation",~250 µM
same,"effect on hemodynamic parameters (blood pressure, left ventricular pressure and its first derivative)",[4]; [6],no effect
same,effect on myocardial FFA uptake,[4]; [6],generally decreased
same,increase of myocardial blood flow,[4]; [6],up to 150%
same,period of increased myocardial pyruvate uptake after dosing,[4]; [6],at least 90 minutes
same,decrease of myocardial oxygen consumption,"[4]; 0.02 to 0.1 millimole/kg. intravenously, in the presence of isoprenaline",about 20%
same,increase of myocardial pyruvate uptake,"[4]; 0.02 to 0.1 millimole/kg. intravenously, presence and absence of isoprenaline",at least 2 fold
same,blood glucose level after 2 days of treatment (immediately before the third dose),"[5]; 1 millimole/kg intraperitoneal daily, declined from 378± 8, placebo 383± 10, averages for 8 animals",356± 4 mg/100 ml.
same,blood glucose level 2 hours after the third dose (minimum value),"[5]; 1 millimole/kg intraperitoneal, placebo 385± 7, averages for 8 animals",313± 7 mg/100 ml.
COc1ccc([C@H](N)C(N)=O)cc1 [L(+)-2-(4-methoxyphenyl)glycinamide],"effect on PDHa/PDHt ratio (predicted, 'will be')",[1],significantly increased
same,"effect on pyruvate oxidation (predicted, 'will be found')",[2],stimulate pyruvate oxidation
CC(C)CCOC(=O)[C@@H](N)c1ccc(O)cc1 [3-Methylbutyl L(+)-2-(4-hydroxyphenyl)glycinate],"PDHa/PDHt Ratio, Compound",[1]; s.c. (subcutaneous),0.51
same,activation at 500 µM,[2]; Rattus norvegicus,32%
same,"effects on myocardial pyruvate uptake, blood flow, oxygen consumption and FFA uptake (predicted, 'will be found')",[4],effects similar to L(+)-2-(4-hydroxyphenyl)glycine
COC(=O)[C@@H](N)c1ccc(O)cc1.Cl [methyl L(+)-2-(4-hydroxyphenyl)glycinate hydrochloride],"effects on myocardial pyruvate uptake, blood flow, oxygen consumption and FFA uptake (predicted, 'will be found')",[4],effects similar to L(+)-2-(4-hydroxyphenyl)glycine
